This is an account of results in patent publication US20230167073A1 (Teijin Pharma Limited, priority 2020, published 2023).

For the test, the target named is T1, Human TRPC6 (Homo sapiens, UniProt Q9Y210).
T1 construct: expressed in transfected cells
T1 sequence (Q9Y210 1-931): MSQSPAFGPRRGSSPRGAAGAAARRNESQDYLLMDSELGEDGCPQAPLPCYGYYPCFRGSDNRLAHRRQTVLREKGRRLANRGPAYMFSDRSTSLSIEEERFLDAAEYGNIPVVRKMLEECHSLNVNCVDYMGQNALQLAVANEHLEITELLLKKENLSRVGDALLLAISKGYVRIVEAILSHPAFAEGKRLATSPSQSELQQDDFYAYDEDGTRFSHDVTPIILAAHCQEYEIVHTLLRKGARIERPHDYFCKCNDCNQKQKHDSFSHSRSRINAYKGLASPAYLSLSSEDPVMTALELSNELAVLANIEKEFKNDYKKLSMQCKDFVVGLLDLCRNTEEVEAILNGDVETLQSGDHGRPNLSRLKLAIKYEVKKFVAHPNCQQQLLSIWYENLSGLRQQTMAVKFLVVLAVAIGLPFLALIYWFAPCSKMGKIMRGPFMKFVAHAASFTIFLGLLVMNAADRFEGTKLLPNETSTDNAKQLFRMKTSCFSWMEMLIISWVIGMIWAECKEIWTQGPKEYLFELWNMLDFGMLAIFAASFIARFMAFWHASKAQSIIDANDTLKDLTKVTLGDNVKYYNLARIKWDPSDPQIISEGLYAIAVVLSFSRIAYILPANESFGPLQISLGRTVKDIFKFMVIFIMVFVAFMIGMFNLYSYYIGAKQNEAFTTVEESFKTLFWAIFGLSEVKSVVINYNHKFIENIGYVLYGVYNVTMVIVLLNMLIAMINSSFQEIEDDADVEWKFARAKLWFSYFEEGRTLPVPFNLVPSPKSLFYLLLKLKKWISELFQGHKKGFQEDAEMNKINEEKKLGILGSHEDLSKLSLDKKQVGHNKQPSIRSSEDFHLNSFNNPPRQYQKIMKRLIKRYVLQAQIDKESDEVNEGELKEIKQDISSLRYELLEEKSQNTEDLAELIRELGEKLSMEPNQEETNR
In words: Evaluation of TRPC6 channel inhibitory activity (1), FLIPR Calcium 5 Assay Kit, OAG stimulation (Compound Nos. 1-1293). Format: cell-based. As to conditions: Human TRPC6 stably-expressing cells, OAG 30 μM, FLIPR Calcium 5 Assay Kit; read-out: Inhibitory activity (pIC50 class) (converted). Put shortly: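 TRPC6 (human) stable cells, 24 h culture; Ca5 no-wash dye + probenecid 30 min; cpd 20 min; OAG 30 μM final; ΔF (pre-cpd min to post-OAG max); 0%/100% = no cpd / no cpd + no OAG; 4PL → pIC50, binned +/++/+++.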
As for `Cc1nn(-c2ccccn2)c(C)c1Oc1cc(C#N)ccc1-c1ncc(CCN)cn1` [compound 941, 4-[5-(2-aminoethyl)pyrimidin-2-yl]-3-(3,5-dimethyl-1-pyridin-2-ylpyrazol-4-yl)oxybenzonitrile], the IC50 is greater than 1000 nM.

For the compound `Cc1cc(Oc2cc(C#N)ccc2-c2ncc(CN)cn2)no1` [compound 676, 4-[5-(aminomethyl)pyrimidin-2-yl]-3-[(5-methyl-1,2-oxazol-3-yl)oxy]benzonitrile], the IC50 was greater than 1000 nM.

In the case of `Cc1nc(-c2cncc(F)c2)cn1Cc1cc(C#N)ccc1-c1ccc(CCN)cn1` [compound 1193, 4-[5-(2-aminoethyl)pyridin-2-yl]-3-[[4-(5-fluoropyridin-3-yl)-2-methylimidazol-1-yl]methyl]benzonitrile], the IC50 was 10 to 1000 nM.

Take `Cc1nc(Oc2cc(C#N)ccc2-c2ncc(C(O)CN)s2)cc(-c2ccccc2)n1` (stereo not drawn) [Compound 224, 4-[5-(2-amino-1-hydroxyethyl)-1,3-thiazol-2-yl]-3-(2-methyl-6-phenylpyrimidin-4-yl)oxybenzonitrile]: the IC50 was 10 to 1000 nM.

For `Cn1nc(-c2ccccc2)cc1Oc1cc(C#N)ccc1-c1ccc2c(CN)noc2c1` [compound 457, 4-[3-(aminomethyl)-1,2-benzoxazol-6-yl]-3-(2-methyl-5-phenylpyrazol-3-yl)oxybenzonitrile], the IC50 was greater than 1000 nM.

Take `Cc1nc(Sc2cc(C#N)ccc2-c2ncc(CN)cn2)cc(N2CCCC2)n1` [compound 1262, 4-[5-(aminomethyl)pyrimidin-2-yl]-3-(2-methyl-6-pyrrolidin-1-ylpyrimidin-4-yl)sulfanylbenzonitrile]: the IC50 is greater than 1000 nM.

In the case of `N#Cc1ccc(-c2ncc(CCN)cn2)c(Sc2cnnc(N3CCCCC3)c2)c1` [compound 1258, 4-[5-(2-aminoethyl)pyrimidin-2-yl]-3-(6-piperidin-1-ylpyridazin-4-yl)sulfanylbenzonitrile], the IC50 is less than 10 nM.

Take `Cc1nc(Oc2cc(C#N)ccc2-c2ccc(CN)cn2)cc(N(C)C)n1` [compound 659, 4-[5-(aminomethyl)pyridin-2-yl]-3-[6-(dimethylamino)-2-methylpyrimidin-4-yl]oxybenzonitrile]: the IC50 is 10 to 1000 nM.

As to `Cn1nc(N(CCF)CCF)cc1Oc1cc(C#N)ccc1-c1ncc(CCN)cn1` [compound 823, 4-[5-(2-aminoethyl)pyrimidin-2-yl]-3-[5-[bis(2-fluoroethyl)amino]-2-methylpyrazol-3-yl]oxybenzonitrile], the IC50 was less than 10 nM.

As to `Cc1sc(N2CCOCC2)nc1C(=O)c1cc(C#N)ccc1-c1ccc(CN)cn1` [compound 1067, 4-[5-(aminomethyl)pyridin-2-yl]-3-(5-methyl-2-morpholin-4-yl-1,3-thiazole-4-carbonyl)benzonitrile], the IC50 was greater than 1000 nM.

For the compound `Cn1nccc1Oc1cc(C#N)ccc1-c1ncc(CCN)cn1` [compound 311, 4-[5-(2-aminoethyl)pyrimidin-2-yl]-3-(2-methylpyrazol-3-yl)oxybenzonitrile], the IC50 was greater than 1000 nM.

As for `Cn1nc(C2CCOCC2)cc1Oc1cc(C#N)ccc1-c1ccc(CN)cn1` [compound 440, 4-[5-(aminomethyl)pyridin-2-yl]-3-[2-methyl-5-(oxan-4-yl)pyrazol-3-yl]oxybenzonitrile], the IC50 was less than 10 nM.

With `Cn1nc2c(c1Oc1cc(C#N)ccc1-c1cc(CCN)ccn1)CCC2` [compound 683, 4-[4-(2-aminoethyl)pyridin-2-yl]-3-[(2-methyl-5,6-dihydro-4H-cyclopenta[c]pyrazol-3-yl)oxy]benzonitrile], the IC50 is greater than 1000 nM.

Take `N#Cc1ccc(-c2ncc(CCN)cn2)c(Oc2cc(N3CCCC3)ncc2C#N)c1` [compound 739, 4-[2-[5-(2-aminoethyl)pyrimidin-2-yl]-5-cyanophenoxy]-6-pyrrolidin-1-ylpyridine-3-carbonitrile]: the IC50 was 10 to 1000 nM.

Regarding `Cn1nc(C2CC2)cc1Oc1cc(C#N)ccc1-c1cc(N)ccn1` [compound 450, 4-(4-aminopyridin-2-yl)-3-(5-cyclopropyl-2-methylpyrazol-3-yl)oxybenzonitrile], the IC50 is greater than 1000 nM.
